Measurements published in patent US20140051576A1, “ACTIVE COMPOUND COMBINATIONS COMPRISING A (THIO)CARBOXAMIDE DERIVATIVE AND AN INSECTICIDAL OR ACARICIDAL OR NEMATICIDAL ACTIVE COMPOUND” (priority 2011, published 2014).
Like-named read-outs stand apart in the source and are kept apart here.

Tests used:
Myzus persicae = Myzus persicae - Test (MYZUPE spray application); format: in vivo
Text: Myzus persicae—Test; (MYZUPE Spray Application)
Chinese cabbage (Brassica pekinesis) leaf—disks infected with all instars of the green peach aphid (Myzus persicae), are sprayed with a preparation of the active ingredient at the desired concentration.
100% means that all aphids have been killed; 0% means that none of the aphids have been killed.

Phaedon cochleariae = Phaedon cochleariae Larvae - Test (PHAECO spray application); format: in vivo
Text: Phaedon cochleariae—Test; (PHAECO Spray Application)
Solvent: 78 parts by weight of acetone • 1.5 parts by weight of N,N-dimethylformamide Emulsifier: 0.5 parts by weight of alkylarylpolyglycolether
Once dry, the leaf discs are infested with mustard beetle larvae (Phaedon cochleariae).

Spodoptera frugiperda = assay: whole plant or invertebrate
Description: Spodoptera frugiperda—Test (SPODFR Spray Application)
Solvent: 78.0 parts by weight acetone • 1.5 parts by weight N,N-dimethylformamide Emulsifier: 0.5 parts by weight alkylarylpolyglycolether
Maize (Zea mais) leaf sections are sprayed with a preparation of the active ingredient of the desired concentration. Once dry, the leaf sections are infested with larvae of the fall armyworm (Spodoptera frugiperda).
After the specified period of time, the mortality in % is determined. 100% means that all caterpillars have been killed and 0% means that none of the caterpillars have been killed.

Tetranychus urticae = Tetranychus urticae - Test; OP-resistant (TETRUR spray application); format: in vivo; conditions: for mortality at 100 g/ha / mortality at 500 g/ha / mortality at 20 g/ha / mortality at 4 g/ha: Tetranychus urticae; for Mortality in % after 6 days obs.: single active ingredient
Text: Tetranychus urticae—Test; OP-Resistant (TETRUR Spray Application)
French beans (Phaseolus vulgaris) which are heavily infested with all stages of the two spotted spidermite (Tetranychus urticae), are sprayed with a preparation of the active ingredient at the desired concentration.

[1] = Myzus persicae, 24 h, read-out: Mortality in % after 1 day obs.
[2] = Myzus persicae, 144 h, read-out: Mortality in % after 6 days obs.
[3] = Phaedon cochleariae, 48 h, read-out: Mortality in % after 2 days obs.
[4] = Phaedon cochleariae, 144 h, read-out: Mortality in % after 6 days obs.
[5] = Spodoptera frugiperda, 48 h, read-out: Mortality in % after 2 days obs.
[6] = Spodoptera frugiperda, 144 h, read-out: Mortality in % after 6 days obs.
[7] = 48 h, read-out: Mortality in % after 2 days obs.
[8] = 144 h, read-out: Mortality in % after 6 days obs.

With `Cn1nc(C(F)F)c(C(=O)N(Cc2c(Cl)cccc2C(F)(F)F)C2CC2)c1F` [A-17, N-[2-chloro-6-(trifluoromethyl)benzyl]-N-cyclopropyl-3-(difluoromethyl)-5-fluoro-1-methyl-1H-pyrazole-4-carboxamide] as the compound, how does the mortality at 100 g/ha (Myzus persicae; [1]) read?
Its mortality at 100 g/ha is 0%.

What about the mortality at 100 g/ha (Myzus persicae; [2]) of the same compound?
The mortality at 100 g/ha was 0%.

What about the mortality at 100 g/ha (Phaedon cochleariae; [3]) of the same compound?
The mortality at 100 g/ha was 0%.

What about the mortality at 100 g/ha (Phaedon cochleariae; [4]) of the same compound?
Its mortality at 100 g/ha is 0%.

What about the mortality at 100 g/ha (Spodoptera frugiperda; [5]) of the same compound?
The mortality at 100 g/ha was 0%.

What about the mortality at 100 g/ha (Spodoptera frugiperda; [6]) of the same compound?
Its mortality at 100 g/ha is 0%.

And the mortality at 100 g/ha (Tetranychus urticae; [7])?
The mortality at 100 g/ha was 0%.

And the mortality at 100 g/ha (Tetranychus urticae; [8])?
Its mortality at 100 g/ha is 0%.

Which results are given for `Cn1nc(C(F)F)c(C(=O)N(Cc2c(C(F)(F)F)ccc(Cl)c2F)C2CC2)c1F` [A-18, N-[3-chloro-2-fluoro-6-(trifluoromethyl)benzyl]-N-cyclopropyl-3-(difluoromethyl)-5-fluoro-1-methyl-1H-pyrazole-4-carboxamide]?
mortality at 500 g/ha (Myzus persicae; [1]): 0%; mortality at 500 g/ha (Myzus persicae; [2]): 0%; mortality at 500 g/ha (Phaedon cochleariae; [3]): 0%; mortality at 500 g/ha (Phaedon cochleariae; [4]): 0%; mortality at 500 g/ha (Spodoptera frugiperda; [6]): 0%; mortality at 500 g/ha (Tetranychus urticae; [7]): 0%; mortality at 500 g/ha (Tetranychus urticae; [8]): 0%

Which results are given for `CCOP(=S)(OCC)Oc1nc(Cl)c(Cl)cc1Cl` [B-1B.10, Chlorpyrifos]?
mortality at 0.8 g/ha (Myzus persicae; [2]): 0%; mortality at 20 g/ha (Phaedon cochleariae; [4]): 0%; mortality at 4 g/ha (Spodoptera frugiperda; [6]): 67%; mortality at 20 g/ha (Tetranychus urticae; [7]): 0%; mortality at 4 g/ha (Tetranychus urticae; [8]): 0%

How did the “Mortality in % after 6 days obs.” value (Myzus persicae; 0.16 g/ha) turn out when `CC1(C)C(C=C(Cl)Cl)C1C(=O)OC(C#N)c1ccc(F)c(Oc2ccccc2)c1` (stereo not drawn) [B-3A.11, β-Cyfluthrin] was run?
Its value is 0%.

And the “Mortality in % after 1 day obs.” value (Myzus persicae; 0.8 g/ha)?
The value was 70%.

And the “Mortality in % after 6 days obs.” value (Myzus persicae; 0.8 g/ha)?
The value was 70%.

And the “Mortality in % after 6 days obs.” value (Phaedon cochleariae; 0.16 g/ha)?
The value was 50%.

And the “Mortality in % after 6 days obs.” value (Phaedon cochleariae; 0.8 g/ha)?
Its value is 67%.

And the “Mortality in % after 6 days obs.” value (Spodoptera frugiperda; 0.16 g/ha)?
Its value is 50%.

What about the “Mortality in % after 6 days obs.” value (Tetranychus urticae; 4 g/ha) of the same compound?
Its value is 0%.

Which results are given for `CC1(C)[C@H](C(=O)O[C@H](C#N)c2cccc(Oc3ccccc3)c2)[C@@H]1C=C(Br)Br` [B-3A.21, Deltamethrin]?
mortality at 0.8 g/ha (Myzus persicae; [1]): 80%; mortality at 0.16 g/ha (Myzus persicae; [2]): 70%; mortality at 0.16 g/ha (Phaedon cochleariae; [4]): 0%; mortality at 0.8 g/ha (Phaedon cochleariae; [4]): 33%; mortality at 0.16 g/ha (Spodoptera frugiperda; [5]): 0%; mortality at 0.032 g/ha (Spodoptera frugiperda; [6]): 0%; mortality at 0.8 g/ha (Spodoptera frugiperda; [6]): 33%; mortality at 4 g/ha (Tetranychus urticae; [8]): 20%

With `CN/C(=N\[N+](=O)[O-])NCc1cnc(Cl)s1` [B-4A.2, Clothianidin] as the compound, how does the mortality at 4 g/ha (Myzus persicae; [1]) read?
The mortality at 4 g/ha was 0%.

And the mortality at 20 g/ha (Phaedon cochleariae; [3])?
Its mortality at 20 g/ha is 83%.

What about the mortality at 4 g/ha (Phaedon cochleariae; [4]) of the same compound?
Its mortality at 4 g/ha is 0%.

And the mortality at 20 g/ha (Spodoptera frugiperda; [6])?
The mortality at 20 g/ha was 0%.

And the mortality at 20 g/ha (Tetranychus urticae; [7])?
The mortality at 20 g/ha was 0%.

What about the mortality at 4 g/ha (Tetranychus urticae; [8]) of the same compound?
Its mortality at 4 g/ha is 0%.

What about the mortality at 20 g/ha (Tetranychus urticae; [8]) of the same compound?
The mortality at 20 g/ha was 0%.

What does the source list for `CNC(=O)c1cc(C#N)cc(C)c1NC(=O)c1cc(Br)nn1-c1ncccc1Cl` [B-26.2, Cyantraniliprole (Cyazypyr)]?
Mortality in % after 1 day obs. (Myzus persicae; 0.8 g/ha): 0%; Mortality in % after 6 days obs. (Myzus persicae; 0.8 g/ha): 70%; Mortality in % after 2 days obs. (Phaedon cochleariae; 0.8 g/ha): 0%; Mortality in % after 6 days obs. (Phaedon cochleariae; 0.8 g/ha): 67%; Mortality in % after 6 days obs. (Spodoptera frugiperda; 0.16 g/ha): 0%; Mortality in % after 6 days obs. (Tetranychus urticae; 20 g/ha): 0%

Which results are given for `O=C1C=C(N(Cc2ccc(Cl)nc2)CC(F)F)CO1` [B-27.16, 4-{[(6-chloropyridin-3-yl)methyl](2,2-difluoroethyl)-amino}furan-2(5H)-one]?
mortality at 4 g/ha (Myzus persicae; [1]): 0%; mortality at 100 g/ha (Myzus persicae; [1]): 80%; mortality at 100 g/ha (Phaedon cochleariae; [3]): 50%; mortality at 20 g/ha (Phaedon cochleariae; [4]): 0%; mortality at 20 g/ha (Spodoptera frugiperda; [6]): 0%; mortality at 100 g/ha (Tetranychus urticae; [7]): 0%; mortality at 100 g/ha (Tetranychus urticae; [8]): 0%

What does the source list for Acetamiprid [B-4A.1]?
Mortality in % after 1 day obs. (Myzus persicae; 0.8 g/ha): 70%; Mortality in % after 2 days obs. (Phaedon cochleariae; 20 g/ha): 50%; Mortality in % after 6 days obs. (Phaedon cochleariae; 100 g/ha): 0%; Mortality in % after 6 days obs. (Spodoptera frugiperda; 20 g/ha): 0%; Mortality in % after 2 days obs. (Tetranychus urticae; 20 g/ha): 0%

What does the source list for Fipronil [B-2B.2]?
Mortality in % after 6 days obs. (Myzus persicae; 20 g/ha): 0%; Mortality in % after 6 days obs. (Phaedon cochleariae; 0.16 g/ha): 50%; Mortality in % after 2 days obs. (Phaedon cochleariae; 0.8 g/ha): 33%; Mortality in % after 2 days obs. (Phaedon cochleariae; 4 g/ha): 67%; Mortality in % after 2 days obs. (Spodoptera frugiperda; 100 g/ha): 67%; Mortality in % after 6 days obs. (Tetranychus urticae; 100 g/ha): 0%

For Transfluthrin [B-3A.46], which “Mortality in % after 1 day obs.” value (Myzus persicae; 20 g/ha) is on record?
The value was 0%.

And the “Mortality in % after 6 days obs.” value (Myzus persicae; 20 g/ha)?
The value was 0%.

What about the “Mortality in % after 1 day obs.” value (Myzus persicae; 100 g/ha) of the same compound?
The value was 80%.

What about the “Mortality in % after 6 days obs.” value (Phaedon cochleariae; 4 g/ha) of the same compound?
The value was 0%.

What about the “Mortality in % after 6 days obs.” value (Phaedon cochleariae; 20 g/ha) of the same compound?
Its value is 0%.

And the “Mortality in % after 2 days obs.” value (Phaedon cochleariae; 100 g/ha)?
The value was 67%.

And the “Mortality in % after 6 days obs.” value (Spodoptera frugiperda; 0.8 g/ha)?
The value was 33%.

What about the “Mortality in % after 6 days obs.” value (Spodoptera frugiperda; 4 g/ha) of the same compound?
The value was 33%.

What about the “Mortality in % after 6 days obs.” value (Spodoptera frugiperda; 20 g/ha) of the same compound?
The value was 50%.

What about the “Mortality in % after 6 days obs.” value (Tetranychus urticae; 100 g/ha) of the same compound?
The value was 0%.
